Literature values in patent US9782413B2, “Composition for treatment of essential thrombocythemia” (AOP ORPHAN PHARMACEUTICALS AG, priority 2010, dated 2017).

Key:
[1] = test system: phosphodiesterase (PDE) 3
[2] = after anagrelide administration

| phosphodiesterase (PDE) 3 inhibitory activity [1] | delay of peak plasma level compared to the parent drug [2] | Compound | platelet reduction in vivo (platelets) |
| --- | --- | --- | --- |
| lacks these activities |  | NC1=Nc2ccc(Cl)c(Cl)c2CN1 [RL 603, 2-amino-5,6-dichloro-3,4-dihydroquinazolone] | lacks these activities |
| considerably more potent than anagrelide | about 45 mm | O=C1NC2=Nc3ccc(Cl)c(Cl)c3CN2C1O (stereo not shown) [3-hydroxyanagrelide] |  |
